Patent US20020091086A1, “Peptides that block viral infectivity and methods of use thereof” (priority 1999, published 2002)
Peptide text beside a SMILES is read from it.

Tests used:
[1] = system: GPG-deleted mutant mp10; assay: infectivity in MT-2 cells, p24 ELISA, GPG-deleted mutant mp10; format: cell-based, HIV-1
Procedure: Accordingly, the ability of GPG-NH2 to inhibit the infectivity of wild-type and V3-loop deletion mutants (GPG domain) in MT-2 cells was determined. In these experiments, approximately 200,000 MT-2 cells were infected with HIV-1Bru wild-type and GPG-deleted mutants mp8 and mp10 at 25 TCID50 to test the inhibitory effect of GPG-NH2 The MT-2 cells were resuspended in 1 ml of RPMT 1640 medium supplemented with 10% (v/v) heat-inactivated fetal bovine serum (FBS, GIBCO), penicillin (100μ/ml), streptomycin (100μ/ml) and Polybrene (Sigma 2 μg/ml) with or without the presence of GPG-NH2 at concentration 20 of μM and 100 μM. Thereafter, viruses were added at 25 TCID50 in a volume of 20-30 μl. Cells were incubated with virus at 37° C. for 16 hr then loosely pelleted by centrifugation at 170×g for 7 minutes. The cells were then washed three times in RPMI medium without peptides at room temperature by cell sedimentation at 170×g for 7 minutes as above. After the final wash, the cells were resuspended in RPMI culture medium in 24-well plate (Costar corporation) then kept at 37° C. in 5% CO2 with humidity. Culture supernatants were collected when medium was changed at day 4, 7, 11 and 14 post infection. To monitor the replication of virus, HIV-1 p24 antigen protein in the supernatants from day 7 and 14 was assayed by a ELISA kit (Abbott Laboratories) which has a linear dose-response range from 20 pg to 640 pg of p24 per ml and the p24 amount can be determined with aid of the regression line.

[2] = system: HIV-1 isolate p7163 (inter AZT); assay: resistant HIV-1 isolates in PBMC, p24 ELISA; format: cell-based; conditions: GPG 100 μM, 14 days post infection
[3] = system: normal human lymphomonocytic cells (PBMC); assay: viability of cultured monocytes and lymphocytes; format: cell-based; conditions: as high as 2 mM; exposure as long as 4 days
Procedure: Next, the toxicity to normal human lymphomonocytic cells (PBMC) was examined. […] The effect of GPG-NH2 on in vitro proliferative response of human mononuclear cells was also tested.

[4] = target: HIV-1 specific protease (Human immunodeficiency virus type 1 group M subtype B, UniProt P04585); assay: activity of the HIV-1 specific protease; format: biochemical
[5] = system: HIV-1 isolate p7300 (low PI); assay: resistant HIV-1 isolates in PBMC, p24 ELISA; format: cell-based; conditions: GPG 100 μM, 14 days post infection
[6] = system: polio viruses; format: cell-based
[7] = target: T1, BSA (Bos taurus, UniProt P02769); assay: dialysis-based binding assay with 14C-GPG-NH2, BSA; conditions: dialysis 2 days at 4° C. against 27.5 μM 14C-GPG-NH2; buffer 1.816
T1 construct: purchased Sigma
Procedure: A dialysis-based binding assay was conducted using a dialysis membrane with a pore size of less than 10 kD. (Slide-A-Lyzer, Pierce). Fifty microliters of a 10 μM stock of the recombinant proteins p24 and gp120 (gifts from the AIDS program, NCIB) and BSA (Sigma) were introduced into separate dialysis membranes and the proteins were dialyzed at 4° C. for 2 days against a 500 ml solution composed of 150 mM NaCl and 50 mM Tris-HCl, pH 7.4 buffer and 27.5 μM of ^14C-GPG-NH2 (Amersham Ltd. UK). Subsequently, ten or five microliter aliquots of the dialyzed p24, gp120, and BSA were removed and mixed with 3 ml of ReadySafe (Beckman) in a scintillation vial. The C^14 was then detected by scintillation counting.

[8] = acid stability in 50 mM KCl and 0.1M HCl by TLC; format: physicochemical; conditions: up to 24 hours
Procedure: Because an oral administration of a pharmaceutical comprising a small peptide is desired, the acid stability of small peptides was assessed by incubating ^14C-labelled GPG-NH2 in a solution of 50 mM KCl and 0.1M HCl for various time periods. After acid hydrolysis, the radiolabeled tripeptide was analyzed by thin layer chromatography (TLC) and the HPTLC plate was developed with 25% methanol: 25%isopropanol: 15% butanol: 35% (0.1N HOAc and 0.1N NaOAc).

[9] = radioactivity associated with rat plasma proteins, SDS/PAGE; format: in vivo, rats; conditions: 60 minutes after feeding
Procedure: The proteins from whole plasma were also analyzed by column chromatography and fractionated and crude protein were separated by sodium dodecyl sulfate polyacrylamide gel (10%) electrophoresis (SDS/PAGE). Rat plasma samples were partially purified with size exclusion ([…], Phamacia) chromatography (0.4×6 cm), in a buffer of 10 mM Tris-HCl pH 8.3 and 50 mM KCl. Eluate was then separated by anionic exchange chromatography by using an increasing stepwise gradient of NaCl in a buffer of 10 mM Tris-HCl pH8.3 (Sepharose CL-6B DEAE, 0.4×6 cm). The eluate was monitored and pooled according to the radioactivity (Ready Safe, Beckman; LKB 1218, Sweden). The protein fractions with strong signal were separated on a 10% SDS-PAGE and were subsequently blotted onto PVDF (polyvinylidene difluoride, BioRad) membrane before being subjected to Edman N-terminal amino acid sequencing (Applied Biosystems Procise Sequencer, USA).
The proteins marked B1-B4 were sequenced and determined to be alpha-1 antitrypsin (Bi), pentaxin (B-2), C-reactive protein (B-3), and B-4 could not be identified. These proteins are all synthesized in the liver. One interpretation is that hydrolyzed GPG-NH2 was reutilized in the liver protein synthesis. […]

[10] = storage stability of capsules; format: physicochemical; conditions: Five-hundred milligram capsules; stored at 4° C.
Description: Compositions of the peptide agents suitable for gastrointestinal administration include, but not limited to, pharmaceutically acceptable powders, pills or liquids for ingestion and suppositories for rectal administration. Due to the most common routes of HIV infection and the ease of use, gastrointestinal administration, particularly oral, is the preferred embodiment of the present invention. […] As previously shown in other virus-host systems, specific antiviral activity of small peptides can be detected in serum after oral administration. (Miller et al., Appl. Microbiol., 16:1489 (1968)). Since small peptides apparently evade degradation by the patient's digestive system, they are ideal for oral administration.

## NCC(=O)N1CCC[C@H]1C(=O)NCC(N)=O [GPG-NH2, glycyl-prolyl-glycine amide] (H-Gly-Pro-Gly-NH2)
[1]; GPG 20 μM, Day 7
  p24: 1560 pg/mL
  reduction (%): 50%
[1]; GPG 20 μM, Day 14
  p24: 51500 pg/mL
  reduction (%): 89%
[1]; GPG 100 μM, Day 7
  p24: 173 pg/mL
  reduction (%): 94%
[1]; GPG 100 μM, Day 14
  p24: 47700 pg/mL
  reduction (%): 90%
[2]
  % reduction: (100%)
  HIV-1 p24: <500 pg/mL
[3]
  viability of cultured monocytes and lymphocytes: did not appreciably affect the viability
[4]
  activity of the HIV-1 specific protease: not to affect
[5]
  % reduction: (100%)
  HIV-1 p24: <500 pg/mL
[6]
  inhibition of polio virus: failed inhibit either influenza or polio viruses
[7]
  radioactive GPG-NH2 associated with BSA: 1.674 μCi/ml
[8]
  TLC mobility after acid exposure: did not affect the mobility
[9]
  radioactivity covalently associated with plasma proteins: little radioactivity was observed to be covalently associated with proteins
[10]
  stability on storage: ≥ 12 months
